The values below come from ChEMBL document CHEMBL4376867 (J Med Chem, 2020).

Molecules are shown by their SMILES. ≈ marks a conversion by molar mass, not a printed value.

Data set [1] addresses T1, Serine/threonine-protein kinase 17A (Homo sapiens, UniProt Q9UEE5).
T1 sequence (Q9UEE5 whole entry): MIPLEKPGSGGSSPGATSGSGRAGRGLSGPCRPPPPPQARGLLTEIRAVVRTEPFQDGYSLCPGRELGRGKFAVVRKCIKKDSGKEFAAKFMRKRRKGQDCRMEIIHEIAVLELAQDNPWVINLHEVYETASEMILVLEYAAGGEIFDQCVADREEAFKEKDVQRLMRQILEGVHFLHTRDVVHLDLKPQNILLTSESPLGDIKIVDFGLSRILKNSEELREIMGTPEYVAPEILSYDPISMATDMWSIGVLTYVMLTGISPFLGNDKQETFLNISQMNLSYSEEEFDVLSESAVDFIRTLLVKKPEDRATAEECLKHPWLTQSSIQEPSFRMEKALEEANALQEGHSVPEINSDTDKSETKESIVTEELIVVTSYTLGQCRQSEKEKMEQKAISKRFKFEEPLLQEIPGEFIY
Put plainly: Inhibition of wild-type human partial length DRAK1 (R32 to E363 residues) expressed in bacterial expression system by Kinomescan method.

Data set [2] deals with T2, Serine/threonine-protein kinase TBK1 (Homo sapiens, UniProt Q9UHD2).
T2 sequence (Q9UHD2 whole entry): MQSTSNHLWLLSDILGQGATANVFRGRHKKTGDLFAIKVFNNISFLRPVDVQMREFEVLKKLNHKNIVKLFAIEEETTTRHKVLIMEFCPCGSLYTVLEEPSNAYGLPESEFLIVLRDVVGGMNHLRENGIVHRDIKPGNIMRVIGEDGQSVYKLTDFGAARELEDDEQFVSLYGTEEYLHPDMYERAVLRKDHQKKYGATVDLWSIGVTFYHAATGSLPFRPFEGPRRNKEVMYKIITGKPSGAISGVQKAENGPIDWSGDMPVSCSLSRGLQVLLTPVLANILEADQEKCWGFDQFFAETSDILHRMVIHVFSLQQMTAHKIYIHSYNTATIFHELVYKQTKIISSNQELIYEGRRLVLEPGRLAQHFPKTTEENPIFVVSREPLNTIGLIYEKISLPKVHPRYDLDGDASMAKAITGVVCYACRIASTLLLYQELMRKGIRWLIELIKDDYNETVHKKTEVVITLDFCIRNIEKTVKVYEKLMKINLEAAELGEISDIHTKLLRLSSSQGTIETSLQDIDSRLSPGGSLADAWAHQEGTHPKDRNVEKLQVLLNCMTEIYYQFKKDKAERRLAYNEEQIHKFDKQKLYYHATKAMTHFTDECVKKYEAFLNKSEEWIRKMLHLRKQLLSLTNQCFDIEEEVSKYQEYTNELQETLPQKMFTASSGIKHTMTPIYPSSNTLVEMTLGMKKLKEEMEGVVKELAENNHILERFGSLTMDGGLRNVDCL
As to the kind of experiment: Inhibition of recombinant full length human N-terminal His-tagged TBK1 using biotin-labelled Ahx-GDEDFSSFAEPG peptide as substrate preincubated with enzyme for 15 mins followed by substrate addition and further incubated for 30 mins in presence of 1 mM of ATP by TR-FRET assay.

A short description of data set [3]: Efflux ratio of apparent permeability across basolateral to apical membrane over apical to basolateral membrane in human Caco2 cells. It counts as ADME, cell-based. The conditions noted are these: Caco-2. Background: Passage across Caco-2 layers is used to estimate intestinal permeability.
A short description of data set [4]: Hepatic extraction ratio in rat liver microsomes at 1 uM measured upto 60 mins by LC-MS/MS analysis. A general note: Microsomes from liver hold many membrane-bound enzymes, among them those of drug oxidation.
Data set [5] can be described thus: Hepatic extraction ratio in human liver microsomes at 1 uM measured upto 60 mins in presence of NADP by LC-MS/MS analysis.
Data set [6] can be described thus: Clearance in rat liver microsomes at 1 uM measured upto 60 mins by LC-MS/MS analysis. It counts as ADME, Microsome. The following applies: 1 h.
Data set [7] can be described thus: Hepatic extraction in Wistar rat at 0.30 mg/kg, iv via bolus or 0.30 mg/kg, po measured upto 24 hrs by LC-MS/MS analysis. The following applies: in vivo, 0.3 mg/kg.
A further data set has as its system Mus musculus. Put plainly: Time required for unbound plasma concentration to reach IC50 for IKKepsilon/TBK1 in human MDB-MB-231 cells transduced with lentiviral vector expressing human IRF3 in NMRI mouse at 100 mg/kg, po. It counts as ADME, organism-based. The following applies: in vivo.
The nature of data set [8]: Distribution coefficient, log D of compound at pH 7.5. It counts as physicochemical. The following applies: octanol/water.
For data set [9], the system named is SK-MEL-2. Put plainly: Antitumor activity against human SK-MEL-2 cells harboring NRAS/TP53 mutation xenografted in NMRI nude mouse assessed as tumor weight by measuring T/C ratio at 200 mg/kg, po bid measured after 35 days compound treatment. It counts as functional. For orientation: A xenograft is tissue or cells of one species grown in another, often human tumour cells in immunodeficient mice.

Data set [10] can be described thus: Clearance in Wistar rat at 0.30 mg/kg, iv via bolus measured upto 24 hrs by LC-MS/MS analysis. It counts as ADME, organism-based. The conditions noted are these: in vivo, 0.3 mg/kg.
For another data set, the target named is Cytochrome P450 2C9 (Homo sapiens, UniProt P11712). Put plainly: Inhibition of CYP2C9 (unknown origin). It counts as ADME.
Chain of Cytochrome P450 2C9 (P11712 whole entry): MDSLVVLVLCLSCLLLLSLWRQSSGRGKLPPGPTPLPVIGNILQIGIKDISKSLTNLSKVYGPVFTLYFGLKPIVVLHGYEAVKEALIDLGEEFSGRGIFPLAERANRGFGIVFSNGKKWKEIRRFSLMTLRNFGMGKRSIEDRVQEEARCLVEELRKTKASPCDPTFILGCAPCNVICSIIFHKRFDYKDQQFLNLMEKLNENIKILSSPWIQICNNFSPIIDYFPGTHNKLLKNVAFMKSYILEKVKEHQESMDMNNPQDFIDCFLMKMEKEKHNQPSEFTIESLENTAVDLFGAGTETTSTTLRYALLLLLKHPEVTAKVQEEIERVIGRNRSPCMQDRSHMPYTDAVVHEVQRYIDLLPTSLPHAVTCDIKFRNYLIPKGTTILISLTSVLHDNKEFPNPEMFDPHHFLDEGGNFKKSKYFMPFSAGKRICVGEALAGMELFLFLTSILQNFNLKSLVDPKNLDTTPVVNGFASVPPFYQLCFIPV
Another data set has as its target Cytochrome P450 3A4 (Homo sapiens, UniProt P08684). Put plainly: Inhibition of CYP3A4 (unknown origin). It counts as ADME.
Data set [11] in a line: Toxicity in NMRI nude mouse xenografted with human SK-MEL-2 cells harboring NRAS/TP53 mutation assessed as body weight loss at 200 mg/kg, po bid for 35 days relative to control. The following applies: in vivo, 840 h. It counts as organism-based.
Data set [12] concerns SK-MEL-2. As to the kind of experiment: Antitumor activity against human SK-MEL-2 cells harboring NRAS/TP53 mutation xenografted in NMRI nude mouse assessed as relative tumor area by measuring T/C ratio at 200 mg/kg, po bid measured after 35 days compound treatment. It counts as functional.
A short description of data set [13]: Terminal half life in Wistar rat at 0.30 mg/kg, iv via bolus or 0.30 mg/kg, po measured upto 24 hrs by LC-MS/MS analysis. It counts as ADME, organism-based. The conditions noted are these: in vivo, 0.3 mg/kg, read-out: beta t1/2 (converted).
A short description of data set [14]: Solubility of compound in water at pH 6.5. It counts as physicochemical.
Another data set addresses T3, Cytochrome P450 2C8 (Homo sapiens, UniProt P10632).
T3 sequence (P10632 whole entry): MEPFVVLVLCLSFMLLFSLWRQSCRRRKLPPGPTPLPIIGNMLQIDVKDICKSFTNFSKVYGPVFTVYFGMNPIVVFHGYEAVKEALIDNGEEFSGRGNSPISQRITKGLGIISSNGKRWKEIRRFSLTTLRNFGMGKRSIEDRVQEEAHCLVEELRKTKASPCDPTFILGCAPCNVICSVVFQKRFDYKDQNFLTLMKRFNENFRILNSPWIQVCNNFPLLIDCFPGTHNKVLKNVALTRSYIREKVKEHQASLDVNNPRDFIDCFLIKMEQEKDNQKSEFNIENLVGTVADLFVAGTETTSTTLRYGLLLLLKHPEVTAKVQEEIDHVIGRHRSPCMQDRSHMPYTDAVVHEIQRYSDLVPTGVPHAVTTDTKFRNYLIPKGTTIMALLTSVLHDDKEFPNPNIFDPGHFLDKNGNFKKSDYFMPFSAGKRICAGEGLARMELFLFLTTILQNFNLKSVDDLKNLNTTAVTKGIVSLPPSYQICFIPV
Put plainly: Inhibition of CYP2C8 (unknown origin). It counts as ADME.

Data set [15] concerns the target Voltage-gated inwardly rectifying potassium channel KCNH2 (Homo sapiens, UniProt Q12809). As to the kind of experiment: Inhibition of human ERG.

Chain of Cytochrome P450 3A4 (P08684 whole entry): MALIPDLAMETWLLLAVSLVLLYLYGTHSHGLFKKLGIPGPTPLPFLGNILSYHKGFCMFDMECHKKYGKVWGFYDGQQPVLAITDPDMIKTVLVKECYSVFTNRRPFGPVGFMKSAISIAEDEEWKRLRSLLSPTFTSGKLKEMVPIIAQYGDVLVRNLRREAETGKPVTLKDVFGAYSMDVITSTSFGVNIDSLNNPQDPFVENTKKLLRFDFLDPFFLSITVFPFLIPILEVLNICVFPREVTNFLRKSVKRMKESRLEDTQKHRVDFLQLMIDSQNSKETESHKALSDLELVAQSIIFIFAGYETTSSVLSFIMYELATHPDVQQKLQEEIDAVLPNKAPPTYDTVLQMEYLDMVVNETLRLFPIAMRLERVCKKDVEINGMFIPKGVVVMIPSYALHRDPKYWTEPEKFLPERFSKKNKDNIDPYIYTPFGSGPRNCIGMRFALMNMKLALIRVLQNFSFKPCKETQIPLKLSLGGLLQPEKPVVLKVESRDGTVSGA
Chain of Voltage-gated inwardly rectifying potassium channel KCNH2 (Q12809 whole entry): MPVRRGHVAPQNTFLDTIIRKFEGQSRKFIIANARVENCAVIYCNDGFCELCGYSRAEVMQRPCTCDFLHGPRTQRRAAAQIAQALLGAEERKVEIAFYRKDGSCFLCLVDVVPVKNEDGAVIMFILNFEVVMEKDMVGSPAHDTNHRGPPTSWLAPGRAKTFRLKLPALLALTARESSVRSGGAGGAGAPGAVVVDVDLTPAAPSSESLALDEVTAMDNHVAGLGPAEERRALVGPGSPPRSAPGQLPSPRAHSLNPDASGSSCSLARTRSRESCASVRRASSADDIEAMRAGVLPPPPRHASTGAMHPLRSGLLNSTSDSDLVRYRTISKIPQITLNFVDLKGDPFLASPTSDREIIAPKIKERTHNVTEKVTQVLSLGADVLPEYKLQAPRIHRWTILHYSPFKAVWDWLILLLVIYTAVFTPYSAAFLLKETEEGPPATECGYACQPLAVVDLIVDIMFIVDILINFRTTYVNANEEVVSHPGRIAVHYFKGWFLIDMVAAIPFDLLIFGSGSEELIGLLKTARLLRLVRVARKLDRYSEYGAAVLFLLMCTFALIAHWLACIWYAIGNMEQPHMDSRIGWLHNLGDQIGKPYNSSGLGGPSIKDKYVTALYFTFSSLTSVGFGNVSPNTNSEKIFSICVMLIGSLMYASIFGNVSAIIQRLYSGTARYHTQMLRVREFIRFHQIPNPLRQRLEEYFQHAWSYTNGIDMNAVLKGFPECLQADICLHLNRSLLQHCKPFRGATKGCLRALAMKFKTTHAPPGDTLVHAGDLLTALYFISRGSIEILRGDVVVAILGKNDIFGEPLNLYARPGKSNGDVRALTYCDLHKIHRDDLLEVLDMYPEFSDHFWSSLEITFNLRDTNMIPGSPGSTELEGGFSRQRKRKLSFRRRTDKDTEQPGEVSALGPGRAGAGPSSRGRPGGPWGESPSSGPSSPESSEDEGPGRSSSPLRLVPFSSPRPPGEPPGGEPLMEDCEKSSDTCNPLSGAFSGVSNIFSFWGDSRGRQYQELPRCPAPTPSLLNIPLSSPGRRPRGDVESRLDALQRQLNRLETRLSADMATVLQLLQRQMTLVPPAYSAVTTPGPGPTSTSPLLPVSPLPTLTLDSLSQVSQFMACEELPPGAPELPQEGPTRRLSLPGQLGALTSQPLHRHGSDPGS

What is called IC50 is the concentration at which inhibition is half-maximal. Turning to `COCc1cc(-c2ccc3nc(Nc4cc([C@@H](C)N5CCN(C(=O)CC(F)(F)F)CC5)ccn4)[nH]c3c2)ncn1`, in [1], the IC50 turned out to be 30 nM.

Regarding `CC(C)Oc1cncnc1-c1ccc2nc(Nc3cc([C@@H](C)N4CCN(C(=O)CC(F)(F)F)CC4)ccn3)[nH]c2c1`, in data set [2], the IC50 was found to be 50 nM.

As usually defined, the efflux ratio is the permeability from basolateral to apical divided by that in the opposite direction, in the common usage. A word on the logD: it is lipophilicity at a set pH, counting ionised and neutral species. A word on the clearance: it is the rate of elimination divided by the concentration. For orientation: solubility means the concentration that dissolves in the medium under given conditions. The low end stands for a poorly soluble substance, the high end for a readily soluble substance. `C[C@H](c1ccnc(Nc2nc3ccc(-c4cc(N(C)C)ncn4)cc3[nH]2)c1)N1CCN(C(=O)CC(F)(F)F)CC1` [BAY-985]: the efflux ratio in data set [3] is 17. Further, the IC50 in data set [1] was 311 nM; in data set [2] it was 30 nM; against Cytochrome P450 2C9, 17000 nM; against Cytochrome P450 3A4, above 20000 nM; against Cytochrome P450 2C8, 860 nM; in data set [15], 4700 nM. Moreover, the hepatic extraction ratio at 1 h, 1 µM in data set [4] came out at 0.4; in [5] it was 0.38. The compound further displayed a CLH in data set [6] of 28.3 mL/min/kg. Further, the hepatic extraction ratio at 24 h in [7] was 0.95. Moreover, the Time in the data set on Mus musculus worked out at 11 h. In addition, in data set [8], the logD was determined as 2.5. For the same compound, the T/C with SK-MEL-2 [9] worked out at 0.6; in the data set with SK-MEL-2 [12] it was 0.8. Besides, in [10], the clearance was 66.7 mL/min/kg. Moreover, the Activity in data set [11] is reported as below 10%. Besides, the half-life in data set [13] was 47.4 min. Besides, the concentration in solution in data set [14] (solubility) came to 0.8 µg/mL (≈ 1.45 µM).

With `O=C(CC(F)(F)F)N1CCN(Cc2ccnc(Nc3nc4ccc(-c5cnn(CC6CC6)c5)cc4[nH]3)c2)CC1`, the efflux ratio in data set [3] is 3.9. For the same compound, in data set [2], the concentration for half-maximal inhibition (IC50) is 137 nM.

Take `C[C@H](c1ccnc(Nc2nc3ccc(-c4cc(OCC5CC5)ncn4)cc3[nH]2)c1)N1CCN(C(=O)CC(F)(F)F)CC1`: in data set [2], the IC50 came to 5 nM.

Usually Kd stands for the constant that tells how readily two partners part at equilibrium. `C[C@H](c1ccnc(Nc2nc3ccc(-c4cnn(CC5CC5)c4)cc3[nH]2)c1)N1CCN(C(=O)CC(F)(F)F)CC1`: in data set [3], the efflux ratio came to 7.5. In addition, in [1], binding was characterised by a dissociation constant (Kd) of 5 nM. In addition, the IC50 in data set [2] is 18 nM.

As to `CN(C)c1cc(-c2ccc3nc(Nc4cc(CN5CCN(C(=O)CC(F)(F)F)CC5)ccn4)[nH]c3c2)ncn1`, the values for the IC50 in [1] and in data set [2] were 252 nM and 167 nM, respectively.

For `Cc1noc(-c2ccc3nc(Nc4cc(CN5CCN(C(=O)CC(F)(F)F)CC5)ccn4)[nH]c3c2)n1`, in data set [3], the efflux ratio worked out at 3.4. The compound further gave a Kd in data set [1] of 9 nM. The half-inhibitory concentration (IC50) in data set [2] came out at 2270 nM.

Take `CNc1cc(-c2ccc3nc(Nc4cc(CN5CCN(C(=O)CC(F)(F)F)CC5)ccn4)[nH]c3c2)ncn1`: the IC50 in data set [1] turned out to be 25 nM; in data set [2], 155 nM.

Take `C[C@H](c1ccnc(Nc2nc3ccc(-c4cnn(CC5CCC5)c4)cc3[nH]2)c1)N1CCN(C(=O)CC(F)(F)F)CC1`: the 50% inhibitory concentration (IC50) in [1] turned out to be 15 nM; in data set [2] it was 6 nM.

On to `Cc1cc(-c2ccc3nc(Nc4cc([C@@H](C)N5CCN(C(=O)CC(F)(F)F)CC5)ccn4)[nH]c3c2)ncn1`, for which, in [2], the IC50 was determined as 17 nM.

For `Cc1noc(-c2ccc3nc(Nc4cc([C@@H](C)N5CCN(C(=O)CC(F)(F)F)CC5)ccn4)[nH]c3c2)n1`, in data set [3], the efflux ratio came out at 0.8. The same compound displayed a Kd in data set [1] of 10 nM. For the same compound, in data set [2], the IC50 amounted to 372 nM.
